Measured values published in PubChem BioAssay (NCI).
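1) Cells in 96-well plates. 2) Compound, 48 h, 5 concentrations. 3) Linear interpolation between surrounding doses. 4) Unreached endpoint = highest concentration. TGI: concentration producing complete growth inhibition.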

What was measured:
Assay in all cases: NCI tumour cell line growth inhibition, 48 h
786-0 renal = system: 786-0 renal
A498 renal = system: A498 renal
SNB-75 CNS = system: SNB-75 CNS
RXF-631 renal = system: RXF-631 renal
IGROV1 ovarian = system: IGROV1 ovarian
HL-60(TB) leukemia = system: HL-60(TB) leukemia
MALME-3M melanoma = system: MALME-3M melanoma
HCT-15 colon = system: HCT-15 colon
NCI-H460 lung = system: NCI-H460 lung
SN12C renal = system: SN12C renal
SF-268 CNS = system: SF-268 CNS
UO-31 renal = system: UO-31 renal
NCI-H23 lung = system: NCI-H23 lung
CCRF-CEM leukemia = system: CCRF-CEM leukemia
A549 NSCLC = system: A549 NSCLC
HCC-2998 colon = system: HCC-2998 colon
RXF 393 renal = system: RXF 393 renal
UACC-62 melanoma = system: UACC-62 melanoma
OVCAR-4 ovarian = system: OVCAR-4 ovarian
COLO 205 colon = system: COLO 205 colon
OVCAR-5 ovarian = system: OVCAR-5 ovarian
CAKI-1 renal = system: CAKI-1 renal
UACC-257 melanoma = system: UACC-257 melanoma
HOP-18 NSCLC = system: HOP-18 NSCLC
KM20L2 colon = system: KM20L2 colon
SF-539 CNS = system: SF-539 CNS
K-562 leukemia = system: K-562 leukemia
SNB-19 CNS = system: SNB-19 CNS
HOP-92 NSCLC = system: HOP-92 NSCLC
DMS 273 small cell lung = system: DMS 273 small cell lung
NCI-H522 lung = system: NCI-H522 lung
LOX IMVI melanoma = system: LOX IMVI melanoma
M14 melanoma = system: M14 melanoma
NCI-H226 lung = system: NCI-H226 lung
OVCAR-3 ovarian = system: OVCAR-3 ovarian
SK-MEL-28 melanoma = system: SK-MEL-28 melanoma
SK-MEL-2 melanoma = system: SK-MEL-2 melanoma
HOP-62 NSCLC = system: HOP-62 NSCLC
LXFL 529 NSCLC = system: LXFL 529 NSCLC
SK-OV-3 ovarian = system: SK-OV-3 ovarian
HCT-116 colon = system: HCT-116 colon
HT29 colon = system: HT29 colon
MOLT-4 leukemia = system: MOLT-4 leukemia
OVCAR-8 ovarian = system: OVCAR-8 ovarian
EKVX NSCLC = system: EKVX NSCLC
U251 CNS = system: U251 CNS
M19-MEL melanoma = system: M19-MEL melanoma
KM12 colon = system: KM12 colon
SR leukemia = system: SR leukemia
DLD-1 colon = system: DLD-1 colon
XF 498 CNS = system: XF 498 CNS
ACHN renal = system: ACHN renal
SK-MEL-5 melanoma = system: SK-MEL-5 melanoma
TK-10 renal = system: TK-10 renal
RPMI-8226 leukemia = system: RPMI-8226 leukemia
SF-295 CNS = system: SF-295 CNS
SNB-78 CNS = system: SNB-78 CNS
DMS 114 small cell lung = system: DMS 114 small cell lung
SW-620 colon = system: SW-620 colon

N#Cc1ccc(Sc2ccccc2)cc1C#N
TGI (786-0 renal): 71 µM | TGI (A498 renal): > 100 µM | TGI (SNB-75 CNS): 52.1 µM | TGI (RXF-631 renal): > 100 µM | TGI (IGROV1 ovarian): > 100 µM | TGI (HL-60(TB) leukemia): > 100 µM | TGI (MALME-3M melanoma): > 100 µM | TGI (HCT-15 colon): 30.6 µM | TGI (NCI-H460 lung): 46.6 µM | TGI (SN12C renal): > 100 µM | TGI (SF-268 CNS): 51.6 µM | TGI (UO-31 renal): > 100 µM | TGI (NCI-H23 lung): > 100 µM | TGI (CCRF-CEM leukemia): 43.3 µM | TGI (A549 NSCLC): > 100 µM | TGI (HCC-2998 colon): > 100 µM | TGI (RXF 393 renal): 81 µM | TGI (UACC-62 melanoma): > 100 µM | TGI (OVCAR-4 ovarian): > 100 µM | TGI (COLO 205 colon): > 100 µM | TGI (OVCAR-5 ovarian): > 100 µM | TGI (CAKI-1 renal): > 100 µM | TGI (UACC-257 melanoma): > 100 µM | TGI (HOP-18 NSCLC): > 100 µM | TGI (KM20L2 colon): > 100 µM | TGI (SF-539 CNS): 47.4 µM | TGI (K-562 leukemia): > 100 µM | TGI (SNB-19 CNS): > 100 µM | TGI (HOP-92 NSCLC): 74.4 µM | TGI (DMS 273 small cell lung): 36.6 µM | TGI (NCI-H522 lung): > 100 µM | TGI (LOX IMVI melanoma): 41.7 µM | TGI (M14 melanoma): > 100 µM | TGI (NCI-H226 lung): > 100 µM | TGI (OVCAR-3 ovarian): > 100 µM | TGI (SK-MEL-28 melanoma): > 100 µM | TGI (SK-MEL-2 melanoma): > 100 µM | TGI (HOP-62 NSCLC): > 100 µM | TGI (LXFL 529 NSCLC): > 100 µM | TGI (SK-OV-3 ovarian): > 100 µM | TGI (HCT-116 colon): 40.6 µM | TGI (HT29 colon): > 100 µM | TGI (MOLT-4 leukemia): > 100 µM | TGI (OVCAR-8 ovarian): > 100 µM | TGI (EKVX NSCLC): > 100 µM | TGI (U251 CNS): > 100 µM | TGI (M19-MEL melanoma): > 100 µM | TGI (KM12 colon): > 100 µM | TGI (SR leukemia): 39.9 µM | TGI (DLD-1 colon): > 100 µM | TGI (XF 498 CNS): 58 µM | TGI (ACHN renal): > 100 µM | TGI (SK-MEL-5 melanoma): > 100 µM | TGI (TK-10 renal): > 100 µM | TGI (RPMI-8226 leukemia): 53.9 µM | TGI (SF-295 CNS): > 100 µM

CC1(C)C(=NN=C(N)N)C(C)(C)C1=NN=C(N)N
TGI (786-0 renal): > 100 µM | TGI (SNB-75 CNS): > 100 µM | TGI (RXF-631 renal): > 100 µM | TGI (IGROV1 ovarian): > 100 µM | TGI (HL-60(TB) leukemia): > 100 µM | TGI (MALME-3M melanoma): > 100 µM | TGI (HCT-15 colon): > 100 µM | TGI (NCI-H460 lung): > 100 µM | TGI (SN12C renal): > 100 µM | TGI (SF-268 CNS): > 100 µM | TGI (UO-31 renal): > 100 µM | TGI (NCI-H23 lung): > 100 µM | TGI (A549 NSCLC): > 100 µM | TGI (HCC-2998 colon): > 100 µM | TGI (RXF 393 renal): > 100 µM | TGI (UACC-62 melanoma): > 100 µM | TGI (OVCAR-4 ovarian): > 100 µM | TGI (COLO 205 colon): > 100 µM | TGI (OVCAR-5 ovarian): > 100 µM | TGI (CAKI-1 renal): > 100 µM | TGI (UACC-257 melanoma): > 100 µM | TGI (KM20L2 colon): > 100 µM | TGI (SF-539 CNS): > 100 µM | TGI (K-562 leukemia): > 100 µM | TGI (SNB-19 CNS): > 100 µM | TGI (HOP-92 NSCLC): > 100 µM | TGI (DMS 273 small cell lung): > 100 µM | TGI (SNB-78 CNS): > 100 µM | TGI (NCI-H522 lung): > 100 µM | TGI (LOX IMVI melanoma): > 100 µM | TGI (M14 melanoma): > 100 µM | TGI (NCI-H226 lung): > 100 µM | TGI (OVCAR-3 ovarian): > 100 µM | TGI (SK-MEL-28 melanoma): > 100 µM | TGI (LXFL 529 NSCLC): > 100 µM | TGI (SK-OV-3 ovarian): > 100 µM | TGI (HCT-116 colon): > 100 µM | TGI (HT29 colon): > 100 µM | TGI (MOLT-4 leukemia): > 100 µM | TGI (OVCAR-8 ovarian): > 100 µM | TGI (U251 CNS): > 100 µM | TGI (M19-MEL melanoma): > 100 µM | TGI (KM12 colon): > 100 µM | TGI (SR leukemia): > 100 µM | TGI (DMS 114 small cell lung): > 100 µM | TGI (DLD-1 colon): > 100 µM | TGI (XF 498 CNS): > 100 µM | TGI (ACHN renal): > 100 µM | TGI (SK-MEL-5 melanoma): > 100 µM | TGI (TK-10 renal): > 100 µM | TGI (SW-620 colon): > 100 µM | TGI (RPMI-8226 leukemia): > 100 µM | TGI (SF-295 CNS): > 100 µM

CCc1c(C)[nH]c2c1/C(=N/N=C1\CCCc3[nH]c(C)c(CC)c31)CCC2
TGI (786-0 renal): > 100 µM | TGI (A498 renal): 75 µM | TGI (SNB-75 CNS): 50.1 µM | TGI (RXF-631 renal): > 100 µM | TGI (IGROV1 ovarian): 83.6 µM | TGI (HL-60(TB) leukemia): 36.4 µM | TGI (MALME-3M melanoma): > 100 µM | TGI (HCT-15 colon): 52.5 µM | TGI (NCI-H460 lung): 43.2 µM | TGI (SN12C renal): > 100 µM | TGI (SF-268 CNS): 61.9 µM | TGI (UO-31 renal): 39.5 µM | TGI (NCI-H23 lung): 62.7 µM | TGI (CCRF-CEM leukemia): 76.4 µM | TGI (A549 NSCLC): > 100 µM | TGI (HCC-2998 colon): > 100 µM | TGI (RXF 393 renal): 70.5 µM | TGI (UACC-62 melanoma): 48.8 µM | TGI (OVCAR-4 ovarian): 52 µM | TGI (COLO 205 colon): 41.6 µM | TGI (OVCAR-5 ovarian): > 100 µM | TGI (CAKI-1 renal): > 100 µM | TGI (UACC-257 melanoma): 31.9 µM | TGI (KM20L2 colon): > 100 µM | TGI (SF-539 CNS): 81.5 µM | TGI (K-562 leukemia): > 100 µM | TGI (SNB-19 CNS): > 100 µM | TGI (HOP-92 NSCLC): 51.5 µM | TGI (DMS 273 small cell lung): 36.7 µM | TGI (SNB-78 CNS): 85.8 µM | TGI (NCI-H522 lung): 33.1 µM | TGI (LOX IMVI melanoma): 54.6 µM | TGI (M14 melanoma): 41.2 µM | TGI (NCI-H226 lung): 39.7 µM | TGI (OVCAR-3 ovarian): 39.7 µM | TGI (SK-MEL-28 melanoma): 35.9 µM | TGI (SK-MEL-2 melanoma): > 100 µM | TGI (HOP-62 NSCLC): > 100 µM | TGI (LXFL 529 NSCLC): 30.2 µM | TGI (SK-OV-3 ovarian): 78.4 µM | TGI (HCT-116 colon): 50.5 µM | TGI (HT29 colon): 81.3 µM | TGI (MOLT-4 leukemia): 39.4 µM | TGI (OVCAR-8 ovarian): 78.2 µM | TGI (EKVX NSCLC): > 100 µM | TGI (U251 CNS): 35.4 µM | TGI (M19-MEL melanoma): 48.3 µM | TGI (KM12 colon): 31.3 µM | TGI (DMS 114 small cell lung): 34.1 µM | TGI (DLD-1 colon): > 100 µM | TGI (XF 498 CNS): 34.4 µM | TGI (ACHN renal): 69.2 µM | TGI (SK-MEL-5 melanoma): 27.6 µM | TGI (TK-10 renal): > 100 µM | TGI (SW-620 colon): 78 µM | TGI (RPMI-8226 leukemia): 33.9 µM | TGI (SF-295 CNS): 46.6 µM
